Consider 28 molecules from patent publication US9981945B2, “Pyrimidine derivatives as CFTR modulators” (NuBridge BioSciences, priority 2015, dated 2018).

Counter-ions that a name gives are not always drawn.

The target of the test is T1, ΔF508 mutant CFTR (Homo sapiens, UniProt P13569, DEL508-508).
T1 construct: expressed in transfected cells; host or cells: Fischer rat thyroid (FRT) cells
T1 sequence (P13569 with tags, fused parts or gaps DEL508-508): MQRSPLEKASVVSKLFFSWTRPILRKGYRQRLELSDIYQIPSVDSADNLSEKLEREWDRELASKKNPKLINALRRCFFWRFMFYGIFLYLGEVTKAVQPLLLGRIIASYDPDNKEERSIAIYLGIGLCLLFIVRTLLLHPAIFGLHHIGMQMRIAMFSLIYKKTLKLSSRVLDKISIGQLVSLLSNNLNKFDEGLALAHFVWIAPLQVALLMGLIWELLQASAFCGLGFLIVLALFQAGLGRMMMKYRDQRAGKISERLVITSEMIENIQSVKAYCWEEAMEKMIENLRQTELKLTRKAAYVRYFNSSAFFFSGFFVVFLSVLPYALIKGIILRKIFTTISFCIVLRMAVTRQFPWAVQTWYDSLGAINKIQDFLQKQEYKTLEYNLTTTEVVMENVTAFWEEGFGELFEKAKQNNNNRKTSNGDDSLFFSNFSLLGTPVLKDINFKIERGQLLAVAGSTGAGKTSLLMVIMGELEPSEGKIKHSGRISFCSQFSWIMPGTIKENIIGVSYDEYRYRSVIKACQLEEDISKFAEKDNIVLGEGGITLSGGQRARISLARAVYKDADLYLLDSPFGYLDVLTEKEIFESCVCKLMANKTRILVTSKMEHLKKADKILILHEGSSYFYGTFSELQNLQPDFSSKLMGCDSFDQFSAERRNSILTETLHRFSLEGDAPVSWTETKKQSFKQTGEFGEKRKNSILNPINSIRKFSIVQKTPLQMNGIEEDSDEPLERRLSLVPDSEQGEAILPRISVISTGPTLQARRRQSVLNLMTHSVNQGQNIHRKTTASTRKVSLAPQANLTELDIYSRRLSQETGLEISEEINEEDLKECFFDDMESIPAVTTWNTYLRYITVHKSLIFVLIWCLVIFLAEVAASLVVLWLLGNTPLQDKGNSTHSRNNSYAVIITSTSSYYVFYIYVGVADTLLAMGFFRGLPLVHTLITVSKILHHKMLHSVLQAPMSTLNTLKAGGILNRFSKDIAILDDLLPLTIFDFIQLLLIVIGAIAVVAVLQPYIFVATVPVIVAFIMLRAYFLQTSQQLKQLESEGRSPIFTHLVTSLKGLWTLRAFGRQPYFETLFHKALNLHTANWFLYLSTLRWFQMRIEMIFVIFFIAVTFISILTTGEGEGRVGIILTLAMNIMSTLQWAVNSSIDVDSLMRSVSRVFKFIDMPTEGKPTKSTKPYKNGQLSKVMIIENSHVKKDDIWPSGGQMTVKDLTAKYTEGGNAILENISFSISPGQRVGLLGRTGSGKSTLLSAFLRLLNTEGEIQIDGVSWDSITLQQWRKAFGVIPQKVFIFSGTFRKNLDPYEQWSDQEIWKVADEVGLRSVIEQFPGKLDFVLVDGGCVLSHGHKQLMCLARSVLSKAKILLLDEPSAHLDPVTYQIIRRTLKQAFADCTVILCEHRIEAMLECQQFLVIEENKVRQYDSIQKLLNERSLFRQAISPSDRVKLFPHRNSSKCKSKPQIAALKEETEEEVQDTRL
As to the kind of experiment: Fluorescence (YFP halide quenching) assay of ΔF508 mutant CFTR activity in FRT cells. It counts as cell-based. Also on record: key: fold of mean activity with forskolin alone (I− quenching rate). The note with it: FRT cells expressing ΔF508-CFTR and YFP-H148Q/I152L, rescued at 27° C. 20-24 h; forskolin 20 μM + test compound 20 μM for 20 min; I− influx rate normalized to forskolin alone. The source says:
The ΔF508 mutant CFTR activities of the CFTR modulators are detected using the Fluorescence Assay developed by Pedemonte (Pedemonte N., et al., Antihypertensive 1,4-dihydropyridines as correctors of the cystic fibrosis transmembrane conductance regulator channel gating defect caused by cystic fibrosis mutations, Mol. Pharmacol., 2005, 68, 1736-1746).
Fischer rat thyroid (FRT) cells, stably transfected with ΔF508 were retransfected with the YFP-H148Q/I152L fluorescent protein. The cells were plated (100,000 cells/well) on black 96-well microplates with clear plastic bottom (Corning Life Sciences, Acton, Mass.).
The 96-well microplates containing FRT cells expressing F508-CFTR and the halide-sensitive YFP were incubated at 27° C. for 20 to 24 h to allow rescue of the mutant protein to the plasma membrane. After incubation, cells were washed with PBS (containing 137 mM NaCl, 2.7 mM KCl, 8.1 mM Na2HPO4, 1.5 mM KH2PO4, 1 mM CaCl2, and 0.5 mM MgCl2) and stimulated for 20 min with forskolin (20 μM) and test compounds (20 μM) in a final volume of 60 μl. Microplates were then transferred to a microplate reader for CFTR activity determination. Each assay consisted of a continuous 14-s fluorescence reading (5 points per second) with 2 s before and 12 s after injection of 165 μl of an iodide-containing solution (PBS with Cl^− replaced by I^−). Final iodide concentration in the wells was 100 mM. […] To determine I^− influx rate, the final 11 s of the data for each well were fitted with an exponential function to extrapolate initial slope. CFTR activity was determined by measuring the rate of fluorescence quenching induced by extracellular addition of I^−. Data are normalized to the mean activity measured in the presence of forskolin alone.
For `Cl.Nc1cc(F)c(-c2c(F)cccc2F)nc1C(=O)Nc1cncnc1OCC1CCCNC1` (stereo not shown) [Example 35, 3-amino-6-(2,6-difluorophenyl)-5-fluoro-N-(4-(piperidin-3-ylmethoxy)pyrimidin-5-yl)picolinamide hydrochloride], the “CFTR Activity” value amounted to 2.1. For `Cl.NC1CCCC(Oc2ncncc2NC(=O)c2ccc(C(F)(F)F)c(-c3c(F)cccc3F)n2)C1` (stereo not shown) [Example 60, N-(4-((3-aminocyclohexyl)oxy)pyrimidin-5-yl)-6-(2,6-difluorophenyl)-5-(trifluoromethyl)picolinamide hydrochloride] the value was 4.8.

Consider `Cl.Nc1cc(C(F)(F)F)c(-c2c(F)cccc2F)nc1C(=O)Nc1cncnc1O[C@H]1CC[C@H](N)CC1` [Example 52, 3-amino-N-(4-(((1r,4r)-4-aminocyclohexyl)oxy)pyrimidin-5-yl)-6-(2,6-difluorophenyl)-5-(trifluoromethyl)picolinamide hydrochloride], for which the “CFTR Activity” value is given as 4.3. The same measure for `Cl.NC1CCC(Oc2ncncc2NC(=O)c2ccc(F)c(-c3c(F)cccc3F)n2)CC1` (stereo not shown) [Example 10, N-(4-(((1r,4r)-4-aminocyclohexyl)oxy)pyrimidin-5-yl)-6-(2,6-difluorophenyl)-5-fluoropicolinamide hydrochloride]: 1.9; for `Cl.Nc1cc(C(F)(F)F)c(-c2c(F)cccc2F)nc1C(=O)Nc1cncnc1OCC1CNC1` [Example 50, 3-amino-N-(4-(azetidin-3-ylmethoxy)pyrimidin-5-yl)-6-(2,6-difluorophenyl)-5-(trifluoromethyl)picolinamide hydrochloride]: 2.9; for `Cl.Nc1cc(F)c(-c2c(F)cccc2F)nc1C(=O)Nc1cncnc1OC1CCCC(N)C1` (stereo not shown) [Example 37, 3-amino-N-(4-((3-aminocyclohexyl)oxy)pyrimidin-5-yl)-6-(2,6-difluorophenyl)-5-fluoropicolinamide]: 4.1. The same measure for `Cl.Nc1cc(F)c(-c2c(F)cccc2F)nc1C(=O)Nc1cncnc1OC1CCNC1` (stereo not shown) [Example 24, 3-amino-6-(2,6-difluorophenyl)-5-fluoro-N-(4-(pyrrolidin-3-yloxy)pyrimidin-5-yl)picolinamide hydrochloride]: 1.9; for `Cl.NC1CCCC(Oc2ncncc2NC(=O)c2ccc(F)c(-c3c(F)cccc3F)n2)C1` (stereo not shown) [Example 11, N-(4-((3-aminocyclohexyl)oxy)pyrimidin-5-yl)-6-(2,6-difluorophenyl)-5-fluoropicolinamide hydrochloride]: 3.0; for `Cl.O=C(Nc1cncnc1OCC1CCNCC1)c1ccc(C(F)(F)F)c(-c2c(F)cccc2F)n1` [Example 43, 6-(2,6-difluorophenyl)-N-(4-(piperidin-4-ylmethoxy)pyrimidin-5-yl)-5-(trifluoromethyl)picolinamide hydrochloride]: 1.3. For `CC(C)(O)CCCOc1ncncc1NC(=O)c1ccc(F)c(-c2c(F)cccc2F)n1` [Example 20, 6-(2,6-difluorophenyl)-5-fluoro-N-(4-((4-hydroxy-4-methylpentyl)oxy)pyrimidin-5-yl)picolinamide] the value was 0.1.

Take `Cl.Nc1cc(F)c(-c2c(F)cccc2F)nc1C(=O)Nc1cncnc1OCC1CCNCC1` [Example 23, 3-amino-6-(2,6-difluorophenyl)-5-fluoro-N-(4-(piperidin-4-ylmethoxy)pyrimidin-5-yl)picolinamide hydrochloride]: the “CFTR Activity” value was found to be 2.2. On to `O=C(Nc1cncnc1OCC1CCOCC1)c1ccc(C(F)(F)F)c(-c2c(F)cccc2F)n1` [Example 47, 6-(2,6-difluorophenyl)-N-(4-((tetrahydro-2H-pyran-4-yl)methoxy)pyrimidin-5-yl)-5-(trifluoromethyl)picolinamide], for which the “CFTR Activity” value worked out at 0.1. For `Cl.NCC(CCl)COc1ncncc1NC(=O)c1ccc(C(F)(F)F)c(-c2c(F)cccc2F)n1` (stereo not shown) [Example 54, N-(4-(3-amino-2-(chloromethyl)propoxy)pyrimidin-5-yl)-6-(2,6-difluorophenyl)-5-(trifluoromethyl)picolinamide hydrochloride] the value was 2.0; for `Cl.Nc1cc(F)c(-c2c(F)cccc2F)nc1C(=O)Nc1cncnc1OC1CCC(N)CC1` (stereo not shown) [Example 27, 3-amino-N-(4-(((1r,4r)-4-aminocyclohexyl)oxy)pyrimidin-5-yl)-6-(2,6-difluorophenyl)-5-fluoropicolinamide hydrochloride], 4.4; for `Cl.Nc1cc(C(F)(F)F)c(-c2c(F)cccc2F)nc1C(=O)Nc1cncnc1OC1CCCNCC1` (stereo not shown) [Example 48, 3-amino-N-(4-(azepan-4-yloxy)pyrimidin-5-yl)-6-(2,6-difluorophenyl)-5-(trifluoromethyl)picolinamide hydrochloride], 4.1. For `Cl.N[C@H]1CC[C@H](Oc2ncncc2NC(=O)c2ccc(C(F)(F)F)c(-c3c(F)cccc3F)n2)CC1` [Example 46, N-(4-(((1r,4r)-4-aminocyclohexyl)oxy)pyrimidin-5-yl)-6-(2,6-difluorophenyl)-5-(trifluoromethyl)picolinamide hydrochloride] the value was 3.2; for `Cl.Nc1cc(F)c(-c2c(F)cccc2F)nc1C(=O)Nc1cncnc1OC1CCNCC1` [Example 25, 3-amino-6-(2,6-difluorophenyl)-5-fluoro-N-(4-(piperidin-4-yloxy)pyrimidin-5-yl)picolinamide hydrochloride], 3.1.

In the case of `Cl.O=C(Nc1cncnc1OCC1CCNC1)c1ccc(F)c(-c2c(F)cccc2F)n1` (stereo not shown) [Example 8, 6-(2,6-difluorophenyl)-5-fluoro-N-(4-(pyrrolidin-3-ylmethoxy)pyrimidin-5-yl)picolinamide hydrochloride], the “CFTR Activity” value was determined as 0.6.

`Cl.Nc1cc(F)c(-c2c(F)cccc2F)nc1C(=O)Nc1cncnc1OC1CCCNCC1` (stereo not shown) [Example 26, 3-amino-N-(4-(azepan-4-yloxy)pyrimidin-5-yl)-6-(2,6-difluorophenyl)-5-fluoropicolinamide hydrochloride]: the “CFTR Activity” value was 4.0. The same measure for `Cl.O=C(Nc1cncnc1OCC1CCCNC1)c1ccc(F)c(-c2c(F)cccc2F)n1` (stereo not shown) [Example 7, 6-(2,6-difluorophenyl)-5-fluoro-N-(4-(piperidin-3-ylmethoxy)pyrimidin-5-yl)picolinamide hydrochloride]: 0.5; for `Cl.O=C(Nc1cncnc1OC1CCCNCC1)c1ccc(F)c(-c2c(F)cccc2F)n1` (stereo not shown) [Example 6, N-(4-(azepan-4-yloxy)pyrimidin-5-yl)-6-(2,6-difluorophenyl)-5-fluoropicolinamide hydrochloride]: 1.9.

As for `Cl.NCCCOc1ncncc1NC(=O)c1ccc(F)c(-c2c(F)cccc2F)n1` [Example 12, N-(4-(3-aminopropoxy)pyrimidin-5-yl)-6-(2,6-difluorophenyl)-5-fluoropicolinamide hydrochloride], the “CFTR Activity” value stood at 0.7. `NCC(CCl)Oc1ncncc1NC(=O)c1ccc(F)c(-c2c(F)cccc2F)n1` (stereo not shown) [Example 29, N-(4-((1-amino-3-chloropropan-2-yl)oxy)pyrimidin-5-yl)-6-(2,6-difluorophenyl)-5-fluoropicolinamide hydrochloride]: the “CFTR Activity” value was determined as 1.8.

On to `Cl.NCC(CCl)COc1ncncc1NC(=O)c1nc(-c2c(F)cccc2F)c(C(F)(F)F)cc1N` (stereo not shown) [Example 55, 3-amino-N-(4-(3-amino-2-(chloromethyl)propoxy)pyrimidin-5-yl)-6-(2,6-difluorophenyl)-5-(trifluoromethyl)picolinamide hydrochloride], for which the “CFTR Activity” value was 4.4. For `COc1cccc(F)c1-c1nc(C(=O)Nc2cncnc2OC2CCCNCC2)ccc1F.Cl` (stereo not shown) [Example 41, N-(4-(azepan-4-yloxy)pyrimidin-5-yl)-5-fluoro-6-(2-fluoro-6-methoxyphenyl)picolinamide hydrochloride] the value was 1.8. The same measure for `Cl.NCCCCOc1ncncc1NC(=O)c1ccc(F)c(-c2c(F)cccc2F)n1` [Example 15, N-(4-(4-aminobutoxy)pyrimidin-5-yl)-6-(2,6-difluorophenyl)-5-fluoropicolinamide hydrochloride]: 0.5; for `Cl.O=C(Nc1cncnc1OC1CCCNC1)c1ccc(F)c(-c2c(F)cccc2F)n1` (stereo not shown) [Example 5, 6-(2,6-difluorophenyl)-5-fluoro-N-(4-(piperidin-3-yloxy)pyrimidin-5-yl)picolinamide hydrochloride]: 0.6. For `CC(O)CCOc1ncncc1NC(=O)c1ccc(F)c(-c2c(F)cccc2F)n1` (stereo not shown) [Example 18, 6-(2,6-difluorophenyl)-5-fluoro-N-(4-(3-hydroxybutoxy)pyrimidin-5-yl)picolinamide] the value was 0.2.
